Laboratory results taken from the NIST ThermoML archive (doi:10.1021/acs.jced.7b00213).
Numbers after ± are expanded uncertainties.

Test: xn = mol fraction of the nth substance listed
Details: Gas, Buoyancy - hydrostatic balance with magnetic suspension - two sinkers, x1 = 0.05362

Compound `[HH]` [hydrogen] + O=C=O has a mass density (273.15 K, 513.52 kPa) of 9.74868 ± 0.0066 kg/m3, a mass density (273.15 K, 1039.6 kPa) of 20.4494 ± 0.013 kg/m3 and a mass density (273.15 K, 1524.6 kPa) of 31.0881 ± 0.019 kg/m3. It also gave a mass density (273.15 K, 2022.4 kPa) of 42.9575 ± 0.026 kg/m3, a mass density (273.15 K, 2536.9 kPa) of 56.521 ± 0.035 kg/m3 and a mass density (273.15 K, 3036 kPa) of 71.3532 ± 0.044 kg/m3. It also gave a mass density (293.15 K, 503.16 kPa) of 8.83486 ± 0.0072 kg/m3, a mass density (293.15 K, 1014.6 kPa) of 18.2895 ± 0.014 kg/m3 and a mass density (293.15 K, 1992 kPa) of 37.9543 ± 0.029 kg/m3. The mass density (293.15 K, 3016.7 kPa) was 61.5091 ± 0.046 kg/m3, the mass density (293.15 K, 4051.1 kPa) was 89.7154 ± 0.068 kg/m3 and the mass density (293.15 K, 4984.9 kPa) was 121.352 ± 0.092 kg/m3. The mass density (323.15 K, 549.21 kPa) was 8.70026 ± 0.0071 kg/m3, the mass density (323.15 K, 1038.1 kPa) was 16.7369 ± 0.013 kg/m3 and the mass density (323.15 K, 2031.1 kPa) was 34.0104 ± 0.026 kg/m3. The mass density (323.15 K, 3009.8 kPa) was 52.4905 ± 0.039 kg/m3, the mass density (323.15 K, 4029.4 kPa) was 73.5962 ± 0.055 kg/m3 and the mass density (323.15 K, 5030.4 kPa) was 96.6051 ± 0.072 kg/m3. The mass density (323.15 K, 5997.4 kPa) was 121.561 ± 0.092 kg/m3.
